# Results as given in publication PMC3559828 (PLoS ONE, 2013).
# pIC50: −log10 of the molar value. Bridge positions count the residues as written; N and C are the ends. Peptide text beside a SMILES is read from it.
# Assays:
# Mouse α1β1γδ nAChR = target: T1, Mouse α1β1γδ nAChR (Mus musculus, UniProt P02716+P04756+P09690+P20782); assay: cell-based
# T1 construct: expressed in transfected cells; host or cells: Xenopus oocytes injected with cRNA
# GABAB receptors = conditions: cited from earlier work
# α9α10 nAChR = conditions: cited from earlier work
# T1 sequence (P04756 21-457 limits assumed): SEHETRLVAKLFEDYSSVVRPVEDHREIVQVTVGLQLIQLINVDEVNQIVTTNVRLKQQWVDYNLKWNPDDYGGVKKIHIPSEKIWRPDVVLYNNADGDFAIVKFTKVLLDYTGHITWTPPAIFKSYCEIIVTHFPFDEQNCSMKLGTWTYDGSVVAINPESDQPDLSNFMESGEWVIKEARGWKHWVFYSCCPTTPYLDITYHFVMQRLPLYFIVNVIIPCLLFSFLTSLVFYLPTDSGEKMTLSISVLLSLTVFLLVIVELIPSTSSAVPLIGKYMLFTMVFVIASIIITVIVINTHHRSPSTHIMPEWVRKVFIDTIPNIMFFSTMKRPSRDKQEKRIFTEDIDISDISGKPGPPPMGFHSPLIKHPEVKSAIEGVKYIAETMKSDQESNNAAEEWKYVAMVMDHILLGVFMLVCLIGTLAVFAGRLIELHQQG
# T1 sequence (P09690 24-501 partner limits assumed): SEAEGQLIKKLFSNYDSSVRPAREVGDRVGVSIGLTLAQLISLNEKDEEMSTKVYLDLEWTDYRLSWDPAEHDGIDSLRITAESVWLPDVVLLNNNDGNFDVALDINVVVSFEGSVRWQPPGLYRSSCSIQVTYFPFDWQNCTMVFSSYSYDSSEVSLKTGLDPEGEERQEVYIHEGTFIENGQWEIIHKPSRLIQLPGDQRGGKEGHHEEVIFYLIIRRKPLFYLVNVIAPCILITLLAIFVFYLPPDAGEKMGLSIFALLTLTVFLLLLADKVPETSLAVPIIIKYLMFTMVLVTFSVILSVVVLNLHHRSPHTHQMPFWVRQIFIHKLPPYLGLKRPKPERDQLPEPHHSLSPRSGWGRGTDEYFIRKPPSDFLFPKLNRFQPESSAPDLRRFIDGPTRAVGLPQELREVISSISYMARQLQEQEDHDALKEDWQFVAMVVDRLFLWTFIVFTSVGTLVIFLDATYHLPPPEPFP
# T1 sequence (P02716 25-520 limits assumed): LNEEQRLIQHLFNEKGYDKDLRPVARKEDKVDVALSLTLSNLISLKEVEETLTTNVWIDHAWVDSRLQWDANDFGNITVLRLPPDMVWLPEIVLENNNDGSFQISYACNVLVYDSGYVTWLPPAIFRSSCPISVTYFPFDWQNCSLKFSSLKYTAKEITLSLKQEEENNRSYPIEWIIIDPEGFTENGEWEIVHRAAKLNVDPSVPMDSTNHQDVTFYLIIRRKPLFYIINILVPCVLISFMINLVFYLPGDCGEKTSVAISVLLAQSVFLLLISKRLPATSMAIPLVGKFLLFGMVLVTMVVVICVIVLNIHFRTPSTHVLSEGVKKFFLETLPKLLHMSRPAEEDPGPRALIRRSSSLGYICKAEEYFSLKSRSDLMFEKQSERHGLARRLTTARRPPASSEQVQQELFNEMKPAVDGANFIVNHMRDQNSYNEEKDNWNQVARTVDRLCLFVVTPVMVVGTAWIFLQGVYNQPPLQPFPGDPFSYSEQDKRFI
# T1 sequence (P20782 21-493 limits assumed): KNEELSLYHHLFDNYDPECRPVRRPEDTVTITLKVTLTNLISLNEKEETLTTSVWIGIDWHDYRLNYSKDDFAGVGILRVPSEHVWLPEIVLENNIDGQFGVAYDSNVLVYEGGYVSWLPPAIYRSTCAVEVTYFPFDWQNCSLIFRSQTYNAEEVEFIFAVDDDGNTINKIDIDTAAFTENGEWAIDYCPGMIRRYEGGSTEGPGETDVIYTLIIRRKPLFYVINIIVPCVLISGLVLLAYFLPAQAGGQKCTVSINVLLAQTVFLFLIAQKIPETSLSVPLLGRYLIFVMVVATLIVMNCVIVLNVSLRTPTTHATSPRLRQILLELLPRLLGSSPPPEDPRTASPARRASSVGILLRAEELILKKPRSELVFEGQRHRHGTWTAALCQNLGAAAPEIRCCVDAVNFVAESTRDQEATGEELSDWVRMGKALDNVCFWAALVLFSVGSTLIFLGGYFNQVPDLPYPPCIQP
Molecule,pIC50 (Mouse α1β1γδ nAChR),activity at GABAB receptors (GABAB receptors),pIC50 (α9α10 nAChR)
"CC(C)C[C@@H]1NC(=O)[C@@H](NC(=O)[C@H](CCCNC(=N)N)NC(=O)[C@@H](N)C(C)C)CSSC[C@@H](C(=O)N[C@H]2CSSC[C@@H](C(=O)N[C@H](C(=O)N[C@@H](Cc3ccc(O)cc3)C(=O)N[C@@H](Cc3ccc(O)cc3)C(=O)N[C@H](C(=O)N[C@@H](CCC(N)=O)C(=O)N[C@@H](CO)C(=O)N[C@@H](CCCNC(=N)N)C(=O)N[C@@H](CCC(=O)O)C(=O)O)[C@@H](C)O)C(C)C)NC(=O)[C@H](CCCNC(=N)N)NC(=O)[C@H](CO)NC(=O)[C@H](Cc3c[nH]cn3)NC(=O)[C@H](CCCNC(=N)N)NC(=O)[C@H](C)NC(=O)[C@H](Cc3ccccc3)NC(=O)[C@H](CO)NC(=O)[C@@H]3CCCN3C(=O)CNC(=O)[C@H](CCCCN)NC(=O)[C@H](CCC(N)=O)NC2=O)NC(=O)[C@@H]2CCCN2C(=O)[C@@H]2CCCN2C(=O)[C@H](CCCNC(=N)N)NC(=O)[C@H](Cc2ccccc2)NC(=O)[C@H](CC(C)C)NC(=O)[C@H](CCCCN)NC(=O)[C@H](CC(N)=O)NC(=O)[C@@H]2CCCN2C(=O)[C@H](CCC(N)=O)NC(=O)[C@H](C)NC(=O)CNC(=O)[C@H](CO)NC(=O)[C@H](CCCCN)NC(=O)[C@H](CCC(=O)O)NC1=O [αB-VxXXIVA [1], [2]] (H-VRCLEKSGAQPNKLFRPPCCQKGPSFARHSRCVYYTQSRE-OH; disulfide 3-19, 20-32)",5.18,,
α-conotoxin RgIA,,activate GABAB receptors,7.72
